# Tests used:
# [1] = molecular target: T1, androgen receptor (AR-LBD) (Rattus norvegicus, UniProt P15207); assay: Evaluation of androgen receptor affinity (PolarScreen Androgen Receptor Competitor Assay Kit, Red; fluorescence polarization); conditions: 22° C. for 5 hours, relative to binding rate of 1 μM DHT, read-out: AR affinity (pEC50) (converted)
# T1 construct: 5 μL of 2×AR-LBD/Fluoromone AL Red Complex contained in the kit; purchased Invitrogen
# T1 sequence (P15207 651-882 limits assumed): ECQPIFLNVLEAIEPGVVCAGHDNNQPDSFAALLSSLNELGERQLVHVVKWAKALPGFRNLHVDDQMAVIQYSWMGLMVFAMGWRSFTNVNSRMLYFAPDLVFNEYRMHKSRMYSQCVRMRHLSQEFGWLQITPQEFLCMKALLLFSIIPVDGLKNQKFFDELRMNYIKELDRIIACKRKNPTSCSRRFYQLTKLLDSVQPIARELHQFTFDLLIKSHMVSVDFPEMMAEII
# How it was run: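 Test compound and the 2× AR-LBD/Fluoromone AL Red complex were combined in duplicate wells. After reacting 5 h at 22° C, polarization was measured. pEC50 was derived by 4-parameter fitting, normalizing to binding obtained with 1 μM dihydrotestosterone.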
# human androgen receptor = molecular target: T2, human androgen receptor (Homo sapiens, UniProt P10275); assay: Reporter assay of an androgen receptor responsive sequence (luciferase, transiently transfected HEK293 cells); format: cell-based; conditions: 24 hours incubation, relative to activity of 100 nM DHT, read-out: AR transcriptive activity (pEC50) (converted)
# T2 construct: expressed in transfected cells; host or cells: HEK293
# T2 sequence (P10275 1-920): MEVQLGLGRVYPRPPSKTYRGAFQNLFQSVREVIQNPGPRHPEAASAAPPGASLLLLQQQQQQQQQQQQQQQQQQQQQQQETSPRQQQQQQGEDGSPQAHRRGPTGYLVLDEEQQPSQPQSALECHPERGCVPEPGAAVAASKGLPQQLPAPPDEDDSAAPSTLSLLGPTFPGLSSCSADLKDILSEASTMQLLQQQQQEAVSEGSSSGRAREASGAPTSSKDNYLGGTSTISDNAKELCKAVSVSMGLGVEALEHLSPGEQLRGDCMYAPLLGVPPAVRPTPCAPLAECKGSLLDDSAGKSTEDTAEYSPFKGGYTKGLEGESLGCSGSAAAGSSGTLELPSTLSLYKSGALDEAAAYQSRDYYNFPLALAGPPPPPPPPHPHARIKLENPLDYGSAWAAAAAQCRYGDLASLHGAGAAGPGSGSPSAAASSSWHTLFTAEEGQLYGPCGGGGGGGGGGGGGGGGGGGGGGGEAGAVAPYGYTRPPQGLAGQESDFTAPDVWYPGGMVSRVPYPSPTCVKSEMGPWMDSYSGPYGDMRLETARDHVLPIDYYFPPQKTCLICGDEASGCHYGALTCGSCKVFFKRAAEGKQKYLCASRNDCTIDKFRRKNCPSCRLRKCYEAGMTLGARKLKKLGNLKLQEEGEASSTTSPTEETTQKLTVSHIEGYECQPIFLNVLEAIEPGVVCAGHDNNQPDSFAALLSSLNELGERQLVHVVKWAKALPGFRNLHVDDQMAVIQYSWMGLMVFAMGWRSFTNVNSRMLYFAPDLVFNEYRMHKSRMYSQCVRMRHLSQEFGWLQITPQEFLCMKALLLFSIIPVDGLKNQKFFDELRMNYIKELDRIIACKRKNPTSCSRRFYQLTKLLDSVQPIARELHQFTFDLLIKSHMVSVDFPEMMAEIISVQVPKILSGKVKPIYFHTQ
# How it was run: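 Agonism scored as pEC50, fitted by 4-parameter curve against the response to 100 nM DHT, from dual-luciferase readout after 24 h compound treatment. Cells were HEK293 co-transfected (3 h) with human AR expression vector, androgen-responsive firefly reporter and Renilla control, in charcoal-stripped serum.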
EC50 [1] [nM],EC50 (human androgen receptor) [nM],SMILES
79.4,> 10000,"Cc1sc(N(Cc2cccc(Oc3ccccc3)c2)c2ccc(C#N)cc2)nc1C(=O)NS(C)(=O)=O [Compound 82, 2-[4-cyano-N-[(3-phenoxyphenyl)methyl]anilino]-5-methyl-N-methylsulfonyl-thiazole-4-carboxamide]"
126,2510,"Cc1sc(N(CCc2cccc(F)c2)c2ccc(C#N)cc2)nc1C(=O)NS(C)(=O)=O [Compound 83, 2-[4-cyano-N-[2-(3-fluorophenyl)ethyl]anilino]-5-methyl-N-methylsulfonyl-thiazole-4-carboxamide]"
200,316,"Cc1sc(N(Cc2ccsc2)c2ccc(C#N)cc2)nc1C(=O)NS(C)(=O)=O [Compound 85, 2-[4-cyano-N-(3-thienylmethyl)anilino]-5-methyl-N-methylsulfonyl-thiazole-4-carboxamide]"
251,1580,"Cc1sc(N(Cc2ccoc2)c2ccc(C#N)cc2)nc1C(=O)NS(C)(=O)=O [Compound 86, 2-[4-cyano-N-(3-furylmethyl)anilino]-5-methyl-N-methylsulfonyl-thiazole-4-carboxamide]"
158,1000,"Cc1sc(N(Cc2ccco2)c2ccc(C#N)cc2)nc1C(=O)NS(C)(=O)=O [Compound 87, 2-[4-cyano-N-(2-furylmethyl)anilino]-5-methyl-N-methylsulfonyl-thiazole-4-carboxamide]"
316,> 10000,"Cc1sc(N(CCc2ccc3ccccc3c2)c2ccc(C#N)cc2)nc1C(=O)NS(C)(=O)=O [Compound 88, 2-[4-cyano-N-[2-(2-naphthyl)ethyl]anilino]-5-methyl-N-methylsulfonyl-thiazole-4-carboxamide]"
501,> 10000,"CCC(C)CN(c1ccc(C#N)cc1)c1nc(C(=O)NS(C)(=O)=O)c(C)s1 (centres unmarked) [Compound 89, 2-[4-cyano-N-(2-methylbutyl)anilino]-5-methyl-N-methylsulfonyl-thiazole-4-carboxamide]"
398,> 10000,"Cc1sc(N(CCC(C)(C)C)c2ccc(C#N)cc2)nc1C(=O)NS(C)(=O)=O [Compound 90, 2-[4-cyano-N-(3,3-dimethylbutyl)anilino]-5-methyl-N-methylsulfonyl-thiazole-4-carboxamide]"
100,1580,"Cc1sc(N(Cc2ccccc2)c2ccc(OC(F)F)cc2)nc1C(=O)NS(C)(=O)=O [Compound 91, 2-[N-benzyl-4-(difluoromethoxy)anilino]-5-methyl-N-methylsulfonyl-thiazole-4-carboxamide]"
39.8,25.1,"Cc1sc(N(Cc2ccc(C(F)F)cc2)c2ccc(C#N)cc2)nc1C(=O)NS(C)(=O)=O [Compound 94, 2-[4-cyano-N-[[4-(difluoromethyl)phenyl]methyl]anilino]-5-methyl-N-methylsulfonyl-thiazole-4-carboxamide]"
79.4,100,"Cc1sc(N(Cc2cc(F)cc(F)c2)c2ccc(C#N)cc2)nc1C(=O)NS(C)(=O)=O [Compound 96, 2-[4-cyano-N-[(3,5-difluorophenyl)methyl]anilino]-5-methyl-N-methylsulfonyl-thiazole-4-carboxamide]"
50.1,31.6,"Cc1sc(N(Cc2ccc(F)c(F)c2)c2ccc(C#N)cc2)nc1C(=O)NS(C)(=O)=O [Compound 97, 2-[4-cyano-N-[(3,4-difluorophenyl)methyl]anilino]-5-methyl-N-methylsulfonyl-thiazole-4-carboxamide]"
63.1,126,"Cc1sc(N(Cc2cc(F)cc(Cl)c2)c2ccc(C#N)cc2)nc1C(=O)NS(C)(=O)=O [Compound 99, 2-[N-[(3-chloro-5-fluoro-phenyl)methyl]-4-cyano-anilino]-5-methyl-N-methylsulfonyl-thiazole-4-carboxamide]"
31.6,15.8,"Cc1sc(N(Cc2ccc(Cl)c(Cl)c2)c2ccc(C#N)cc2)nc1C(=O)NS(C)(=O)=O [Compound 100, 2-[4-cyano-N-[(3,4-dichlorophenyl)methyl]anilino]-5-methyl-N-methylsulfonyl-thiazole-4-carboxamide]"
79.4,50.1,"Cc1sc(N(Cc2cccc(F)c2F)c2ccc(C#N)cc2)nc1C(=O)NS(C)(=O)=O [Compound 102, 2-[4-cyano-N-[(2,3-difluorophenyl)methyl]anilino]-5-methyl-N-methylsulfonyl-thiazole-4-carboxamide]"
158,316,"Cc1sc(N(Cc2cc(F)ccc2F)c2ccc(C#N)cc2)nc1C(=O)NS(C)(=O)=O [Compound 103, 2-[4-cyano-N-[(2,5-difluorophenyl)methyl]anilino]-5-methyl-N-methylsulfonyl-thiazole-4-carboxamide]"
50.1,126,"Cc1sc(N(Cc2ccc(F)cc2F)c2ccc(C#N)cc2)nc1C(=O)NS(C)(=O)=O [Compound 104, 2-[4-cyano-N-[(2,4-difluorophenyl)methyl]anilino]-5-methyl-N-methylsulfonyl-thiazole-4-carboxamide]"
126,316,"COc1ccc(F)cc1CN(c1ccc(C#N)cc1)c1nc(C(=O)NS(C)(=O)=O)c(C)s1 [Compound 105, 2-[4-cyano-N-[(5-fluoro-2-methoxy-phenyl)methyl]anilino]-5-methyl-N-methylsulfonyl-thiazole-4-carboxamide]"
79.4,316,"Cc1sc(N(Cc2ccc(F)cc2Cl)c2ccc(C#N)cc2)nc1C(=O)NS(C)(=O)=O [Compound 106, 2-[N-[(2-chloro-4-fluoro-phenyl)methyl]-4-cyano-anilino]-5-methyl-N-methylsulfonyl-thiazole-4-carboxamide]"
50.1,31.6,"Cc1sc(N(Cc2cccc(Cl)c2F)c2ccc(C#N)cc2)nc1C(=O)NS(C)(=O)=O [Compound 107, 2-[N-[(3-chloro-2-fluoro-phenyl)methyl]-4-cyano-anilino]-5-methyl-N-methylsulfonyl-thiazole-4-carboxamide]"
100,501,"Cc1sc(N(Cc2cc(F)ccc2Cl)c2ccc(C#N)cc2)nc1C(=O)NS(C)(=O)=O [Compound 108, 2-[N-[(2-chloro-5-fluoro-phenyl)methyl]-4-cyano-anilino]-5-methyl-N-methylsulfonyl-thiazole-4-carboxamide]"
100,200,"Cc1sc(N(Cc2cc(F)cc(F)c2F)c2ccc(C#N)cc2)nc1C(=O)NS(C)(=O)=O [Compound 109, 2-[4-cyano-N-[(2,3,5-trifluorophenyl)methyl]anilino]-5-methyl-N-methylsulfonyl-thiazole-4-carboxamide]"
63.1,126,"Cc1sc(N(Cc2cc(F)c(F)cc2F)c2ccc(C#N)cc2)nc1C(=O)NS(C)(=O)=O [Compound 110, 2-[4-cyano-N-[(2,4,5-trifluorophenyl)methyl]anilino]-5-methyl-N-methylsulfonyl-thiazole-4-carboxamide]"
50.1,63.1,"COc1c(F)ccc(CN(c2ccc(C#N)cc2)c2nc(C(=O)NS(C)(=O)=O)c(C)s2)c1F [Compound 111, 2-[4-cyano-N-[(2,4-difluoro-3-methoxy-phenyl)methyl]anilino]-5-methyl-N-methylsulfonyl-thiazole-4-carboxamide]"
31.6,79.4,"COc1ccc(CN(c2ccc(C#N)cc2)c2nc(C(=O)NS(C)(=O)=O)c(C)s2)c(F)c1F [Compound 112, 2-[4-cyano-N-[(2,3-difluoro-4-methoxy-phenyl)methyl]anilino]-5-methyl-N-methylsulfonyl-thiazole-4-carboxamide]"

# From patent US10689354B2, “Aminoazole derivative” (Teijin Pharma Limited, priority 2015, dated 2020)
